# Tests used:
# pigweed = assay: Test B pre/postemergence pigweed; assay type: in vivo, Amaranthus retroflexus
# Outline: (§1)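 Test chemicals in a non-phytotoxic solvent mixture with surfactant were sprayed preemergence onto planted seeds and postemergence onto plants 2 to 18 cm tall (1- to 4-leaf stage). After twelve to sixteen days in a greenhouse, injury was visually rated against untreated controls from 0 (no effect) to 10 (complete control).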
# cocklebur = assay: Test B pre/postemergence cocklebur; assay type: in vivo, Xanthium strumarium
# Outline: as §1
# surinam grass = assay: Test B pre/postemergence surinam grass; assay type: in vivo, Brachiaria decumbens
# Outline: as §1
# wild oat = assay: Test B pre/postemergence wild oat; assay type: in vivo, Avena fatua
# Outline: as §1
# soybean = assay: Test B pre/postemergence soybean; assay type: in vivo, Glycine max
# Outline: as §1
# giant foxtail = assay: Test B pre/postemergence giant foxtail; assay type: in vivo, Setaria faberii
# Outline: as §1
# velvetleaf = assay: Test B pre/postemergence velvetleaf; assay type: in vivo, Abutilon theophrasti
# Outline: as §1
# corn = assay: Test B pre/postemergence corn; assay type: in vivo, Zea mays
# Outline: as §1
# rape = assay: Test B pre/postemergence rape; assay type: in vivo, Brassica napus
# Outline: as §1
# sugar beet = assay: Test B pre/postemergence sugar beet; assay type: in vivo, Beta vulgaris
# Outline: as §1
# blackgrass = assay: Test B pre/postemergence blackgrass; assay type: in vivo, Alopecurus myosuroides
# Outline: as §1
# crabgrass = assay: Test B pre/postemergence crabgrass; assay type: in vivo, Digitaria sanguinalis
# Outline: as §1
# bedstraw = assay: Test B pre/postemergence bedstraw; assay type: in vivo, Galium aparine; details: for Bedstraw plant response rating: 10 is complete control
# Outline: as §1
# wheat = assay: Test B pre/postemergence wheat; assay type: in vivo, Triticum aestivum
# Outline: as §1
# morningglory = assay: Test B pre/postemergence morningglory; assay type: in vivo, Ipomoea hederacea
# Outline: as §1
# purple nutsedge = assay: Test B pre/postemergence purple nutsedge; assay type: in vivo, Cyperus rotundus
# Outline: as §1
# [1] = Postemergence, Rate 62 g/ha, scale of 0 to 10, 0 is no effect, 10 is complete control
# [2] = Postemergence, Rate 125 g/ha, scale 0 to 10, 0 is no effect, 10 is complete control
# [3] = Postemergence, Rate 500 g/ha, scale 0 to 10, 0 is no effect, 10 is complete control
# [4] = Preemergence, Rate 62 g/ha, scale of 0 to 10 where 0 is no effect and 10 is complete control
# [5] = Preemergence, Rate 125 g/ha, scale 0 to 10, 0 is no effect, 10 is complete control
# [6] = Preemergence, Rate 500 g/ha, scale of 0 to 10 where 0 is no effect and 10 is complete control
# [7] = Postemergence, Rate 250 g/ha, scale 0 to 10
# [8] = Preemergence, Rate 250 g/ha, scale 0 to 10, 0 is no effect, 10 is complete control
smiles,measurement,setting,value
CC(=O)C(C)n1c(=O)on(C(=O)N(c2ccc(F)cc2F)C(C)C)c1=O (stereo not shown) [Compound 517],Redroot pigweed plant response rating,pigweed; [1],0
same,Redroot pigweed plant response rating,pigweed; [2],4
same,"Plant response rating, Redroot pigweed",pigweed; [3],7
same,"Plant response rating, Redroot pigweed",pigweed; [4],8
same,Redroot pigweed plant response rating,pigweed; [5],9
same,Redroot pigweed plant response rating,pigweed; [6],10
same,Cocklebur plant response rating,cocklebur; [1],0
same,Cocklebur plant response rating,cocklebur; [2],0
same,Cocklebur plant response rating,cocklebur; [7],0
same,"Plant response rating, Cocklebur",cocklebur; [3],4
same,"Plant response rating, Cocklebur",cocklebur; [4],0
same,Cocklebur plant response rating,cocklebur; [5],0
same,Cocklebur plant response rating,cocklebur; [8],0
same,Cocklebur plant response rating,cocklebur; [6],0
same,B. signalgrass plant response rating,surinam grass; [1],0
same,B. signalgrass plant response rating,surinam grass; [2],4
same,B. signalgrass plant response rating,"surinam grass; Postemergence, Rate 250 g/ha, scale 0 to 10, 0 no effect, 10 complete control",6
same,"Plant response rating, B. signalgrass",surinam grass; [3],8
same,"Plant response rating, B. signalgrass",surinam grass; [4],0
same,B. signalgrass plant response rating,surinam grass; [5],0
same,B. signalgrass plant response rating,surinam grass; [8],0
same,B. signalgrass plant response rating,"surinam grass; Preemergence, Rate 500 g/ha, scale 0 to 10, 0 is no effect, 10 is complete control",0
same,Wild oats plant response rating,wild oat; [1],0
same,Wild oats plant response rating,wild oat; [2],0
same,"Plant response rating, Wild oats",wild oat; [3],3
same,"Plant response rating, Wild oats",wild oat; [4],4
same,Wild oats plant response rating,wild oat; [5],4
same,Wild oats plant response rating,wild oat; [6],5
same,Soybean plant response rating,soybean; [1],0
same,Soybean plant response rating,soybean; [2],6
same,"Plant response rating, Soybean",soybean; [3],8
same,"Plant response rating, Soybean",soybean; [4],0
same,Soybean plant response rating,soybean; [5],0
same,Soybean plant response rating,soybean; [6],0
same,Giant foxtail plant response rating,giant foxtail; [1],8
same,Giant foxtail plant response rating,giant foxtail; [2],8
same,"Plant response rating, Giant foxtail",giant foxtail; [3],9
same,"Plant response rating, Giant foxtail",giant foxtail; [4],2
same,Giant foxtail plant response rating,giant foxtail; [5],3
same,Giant foxtail plant response rating,giant foxtail; [6],10
same,Velvetleaf plant response rating,velvetleaf; [1],0
same,Velvetleaf plant response rating,velvetleaf; [2],0
same,"Plant response rating, Velvetleaf",velvetleaf; [3],6
same,"Plant response rating, Velvetleaf",velvetleaf; [4],0
same,Velvetleaf plant response rating,velvetleaf; [5],0
same,Velvetleaf plant response rating,velvetleaf; [6],3
same,Corn plant response rating,corn; [1],0
same,Corn plant response rating,corn; [2],0
same,Corn plant response rating,corn; [7],0
same,"Plant response rating, Corn",corn; [3],4
same,"Plant response rating, Corn",corn; [4],0
same,Corn plant response rating,corn; [5],0
same,Corn plant response rating,corn; [6],3
same,Rape plant response rating,rape; [1],0
same,Rape plant response rating,rape; [2],0
same,"Plant response rating, Rape",rape; [3],4
same,"Plant response rating, Rape",rape; [4],0
same,Rape plant response rating,rape; [5],0
same,Rape plant response rating,rape; [6],4
same,Sugarbeets plant response rating,sugar beet; [1],0
same,Sugarbeets plant response rating,sugar beet; [2],0
same,"Plant response rating, Sugarbeets",sugar beet; [3],3
same,"Plant response rating, Sugarbeets",sugar beet; [4],0
same,Sugarbeets plant response rating,sugar beet; [5],0
same,Sugarbeets plant response rating,sugar beet; [6],5
same,Blackgrass plant response rating,blackgrass; [1],0
same,Blackgrass plant response rating,blackgrass; [2],3
same,Blackgrass plant response rating,blackgrass; [7],6
same,"Plant response rating, Blackgrass",blackgrass; [3],6
same,"Plant response rating, Blackgrass",blackgrass; [4],2
same,Blackgrass plant response rating,blackgrass; [5],2
same,Blackgrass plant response rating,blackgrass; [8],4
same,Blackgrass plant response rating,blackgrass; [6],4
same,Crabgrass plant response rating,crabgrass; [1],7
same,Crabgrass plant response rating,crabgrass; [2],7
same,Crabgrass plant response rating,crabgrass; [7],8
same,"Plant response rating, Crabgrass",crabgrass; [3],9
same,"Plant response rating, Crabgrass",crabgrass; [4],4
same,Crabgrass plant response rating,crabgrass; [5],4
same,Crabgrass plant response rating,crabgrass; [6],7
same,Bedstraw plant response rating,"bedstraw; Postemergence, Rate 62 g/ha, scale of 0 to 10, 0 is no effect",4
same,Bedstraw plant response rating,"bedstraw; Postemergence, Rate 125 g/ha, scale 0 to 10, 0 is no effect",7
same,"Plant response rating, Bedstraw",bedstraw; [4],0
same,Bedstraw plant response rating,"bedstraw; Preemergence, Rate 125 g/ha, scale 0 to 10, 0 is no effect",0
same,Bedstraw plant response rating,"bedstraw; Preemergence, Rate 250 g/ha, scale 0 to 10, 0 is no effect",0
same,Bedstraw plant response rating,"bedstraw; Preemergence, Rate 500 g/ha, scale 0 to 10, 0 is no effect",0
same,Wheat plant response rating,wheat; [1],0
same,Wheat plant response rating,wheat; [2],0
same,"Plant response rating, Wheat",wheat; [3],4
same,"Plant response rating, Wheat",wheat; [4],0
same,Wheat plant response rating,wheat; [5],0
same,Wheat plant response rating,wheat; [6],6
same,Morningglory plant response rating,morningglory; [1],2
same,Morningglory plant response rating,morningglory; [2],2
same,"Plant response rating, Morningglory",morningglory; [3],2
same,"Plant response rating, Morningglory",morningglory; [4],0
same,Morningglory plant response rating,morningglory; [5],0
same,Morningglory plant response rating,morningglory; [6],0
same,Nutsedge plant response rating,purple nutsedge; [1],0
same,Nutsedge plant response rating,purple nutsedge; [2],0
same,"Plant response rating, Nutsedge",purple nutsedge; [4],0
same,Nutsedge plant response rating,purple nutsedge; [5],0
same,Nutsedge plant response rating,purple nutsedge; [6],0

# From patent US6737383B1, “Herbicidal oxadiazolidines” (priority 1999, dated 2004)
